Measurements published in publication PMC4466095 (Bioorganic & medicinal chemistry, 2014).

How the values were obtained:
Assay type in all cases: cell-based
FPR2 = molecular target: T1, FPR2 (Homo sapiens, UniProt P25090); experiment: Ca2+ mobilization in FPR2-transfected HL-60 cells
T1 sequence (P25090 1-351): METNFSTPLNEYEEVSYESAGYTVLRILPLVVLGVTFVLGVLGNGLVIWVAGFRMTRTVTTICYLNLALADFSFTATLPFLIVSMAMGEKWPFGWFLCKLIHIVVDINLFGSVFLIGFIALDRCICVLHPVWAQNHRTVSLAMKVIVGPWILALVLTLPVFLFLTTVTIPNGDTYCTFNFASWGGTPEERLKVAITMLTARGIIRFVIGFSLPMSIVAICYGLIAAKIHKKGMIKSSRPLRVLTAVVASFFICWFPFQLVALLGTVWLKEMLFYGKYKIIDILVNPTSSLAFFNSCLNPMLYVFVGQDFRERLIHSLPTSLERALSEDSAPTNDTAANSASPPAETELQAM

human neutrophils = experiment: Ca2+ mobilization in human neutrophils
mouse neutrophils = experiment: Ca2+ mobilization in mouse neutrophils; conditions: Neutrophil, read-out: EC50, Ca2+ mobilization, Mouse PMN
FPR1 = molecular target: T2, FPR1 (Homo sapiens, UniProt P21462); experiment: Ca2+ mobilization in FPR1-transfected HL-60 cells
T2 sequence (P21462 1-350): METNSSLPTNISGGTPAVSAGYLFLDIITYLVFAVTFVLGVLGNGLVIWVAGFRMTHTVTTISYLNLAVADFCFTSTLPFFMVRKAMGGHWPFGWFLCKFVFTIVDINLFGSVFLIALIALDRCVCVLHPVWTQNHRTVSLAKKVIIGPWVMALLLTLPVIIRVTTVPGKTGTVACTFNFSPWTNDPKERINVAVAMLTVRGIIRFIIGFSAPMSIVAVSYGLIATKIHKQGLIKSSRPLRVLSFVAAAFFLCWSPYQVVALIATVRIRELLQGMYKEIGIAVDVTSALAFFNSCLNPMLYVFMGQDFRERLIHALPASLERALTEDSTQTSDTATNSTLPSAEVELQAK

Row | SMILES | activation of FPR2 in FPR2-HL60 cells and in human neutrophils (in words) (FPR2) | Ca2+ mobilization in human neutrophils (in words) (human neutrophils) | EC50 (mouse neutrophils) [nM] | Ca2+ mobilization in FPR1-HL60 cells (in words) (FPR1) | difference in potency between enantiomers in activation of human neutrophils (human neutrophils; (S)-9a vs (R)-9a) [fold] | Efficacy, Ca2+ mobilization, Human PMN (w/o probenecid) (human neutrophils; without probenecid, normalized to 5 nM fMLF = 100%) [%]
1 | COc1ccc(NC(=O)N[C@H](Cc2c[nH]c3ccccc23)C(=O)NCC2(c3ccnc(F)c3)CCCCC2)cc1 [(R)-9b] | inactive | not able to induce Ca^2+ mobilization | 2300 ± 730 | – | – | –
2 | COc1ccc(NC(=O)N[C@@H](Cc2c[nH]c3ccccc23)C(=O)NCC2(c3ccccn3)CCCCC2)cc1 [(S)-9e, (S)-3-(1H-Indol-3-yl)-2-[3-(4-methoxyphenyl)ureido]-N-[[1-(2-pyridinyl)cyclohexyl]methyl]propanamide] | – | – | 2800 ± 640 | stimulated Ca^2+ mobilization | – | –
3 | COc1ccc(NC(=O)N[C@H](Cc2c[nH]c3ccccc23)C(=O)NCC2(c3ccc(F)cc3)CCCCC2)cc1 [(R)-9f, (R)-N-[[1-(4-Fluorophenyl)cyclohexyl]methyl]-3-(1H-indol-3-yl)-2-[3-(4-methoxyphenyl)ureido]propanamide] | inactive | not able to induce Ca^2+ mobilization | 2500 ± 420 | – | – | –
4 | COc1ccc(NC(=O)N[C@@H](Cc2c[nH]c3ccccc23)C(=O)NCC2(c3ccc(F)cc3)CCCCC2)cc1 [(S)-9f, (S)-N-[[1-(4-Fluorophenyl)cyclohexyl]methyl]-3-(1H-indol-3-yl)-2-[3-(4-methoxyphenyl)ureido]propanamide] | active | only in the presence of probenecid | 2300 ± 350 | unable to stimulate Ca^2+ mobilization | – | –
5 | COc1ccc(NC(=O)N[C@H](Cc2c[nH]c3ccccc23)C(=O)NCC2(c3ccccc3)CCCCC2)cc1 [(R)-9c, (R)-3-(1H-Indol-3-yl)-2-[3-(4-methoxyphenyl)ureido]-N-[(1-phenylcyclohexyl)methyl]propanamide] | – | only in the presence of probenecid | 3800 ± 1300 | unable to stimulate Ca^2+ mobilization | – | –
6 | COc1ccc(NC(=O)N[C@H](Cc2c[nH]c3ccccc23)C(=O)NCC2(c3ccc(OC)cn3)CCCCC2)cc1 [(R)-9a, (R)-3-(1H-Indol-3-yl)-2-[3-(4-methoxyphenyl)ureido]-N-[[1-(5-methoxy-2-pyridinyl)cyclohexyl]methyl]propanamide] | – | – | 4900 ± 1400 | – | – | –
7 | COc1ccc(NC(=O)N[C@@H](Cc2c[nH]c3ccccc23)C(=O)NCC2(c3ccccc3)CCCCC2)cc1 [(S)-9c, (S)-3-(1H-Indol-3-yl)-2-[3-(4-methoxyphenyl)ureido]-N-[(1-phenylcyclohexyl)methyl]propanamide] | – | not able to induce Ca^2+ mobilization | 2500 ± 610 | – | – | –
8 | COc1ccc(NC(=O)N[C@@H](Cc2c[nH]c3ccccc23)C(=O)NCC2(c3ccc(OC)cn3)CCCCC2)cc1 [(S)-9a, (S )-3-(1H-indol-3-yl)-2-[3-(4-methoxyphenyl)ureido]-N -[[1-(5-methoxy-2-pyridinyl)cyclohexyl]methyl]propanamide] | – | – | 240 ± 70 | stimulated Ca^2+ mobilization | > 14 | 100
9 | COc1ccc(NC(=O)N[C@@H](Cc2c[nH]c3ccccc23)C(=O)NCC2(c3ccnc(F)c3)CCCCC2)cc1 [(S)-9b] | active | – | 1700 ± 440 | unable to stimulate Ca^2+ mobilization | – | –
10 | COc1ccc(NC(=O)N[C@@H](Cc2c[nH]c3ccccc23)C(=O)NCC2(c3cccnc3)CCCCC2)cc1 [(S)-9d, (S)-3-(1H-Indol-3-yl)-2-[3-(4-methoxyphenyl)ureido]-N-[[1-(3-pyridinyl)cyclohexyl]methyl]propanamide] | able to activate FPR2 | – | 3900 ± 1500 | unable to stimulate Ca^2+ mobilization | – | –
11 | COc1ccc(NC(=O)N[C@H](Cc2c[nH]c3ccccc23)C(=O)NCC2(c3ccccn3)CCCCC2)cc1 [(R)-9e, (R)-3-(1H-Indol-3-yl)-2-[3-(4-methoxyphenyl)ureido]-N-[[1-(2-pyridinyl)cyclohexyl]methyl]propanamide] | – | – | 1000 ± 270 | – | – | –
12 | COc1ccc(NC(=O)N[C@H](Cc2c[nH]c3ccccc23)C(=O)NCC2(c3cccnc3)CCCCC2)cc1 [(R)-9d, (R)-3-(1H-Indol-3-yl)-2-[3-(4-methoxyphenyl)ureido]-N-[[1-(3-pyridinyl)cyclohexyl]methyl]propanamide] | – | not able to induce Ca^2+ mobilization | 2100 ± 580 | – | – | –
